Results taken from publication PMC7278776, “Multidrug Resistance Modulation Activity of Silybin Derivatives and Their Anti-Inflammatory Potential” (Antioxidants, 2020).

What was measured:
ABCF3 = ABCF3 mRNA expression (real-time PCR); assay type: cell-based, human; conditions: A2780/DOX
Protocol: (§1) The A2780/DOX cell line was seeded into 5 cm Petri dishes with DMEM medium at 1 × 10^5 cell/mL. […] After 48 h of treatment, the cells were washed with PBS and harvested using the standard trypsin-EDTA procedure. The harvested cells were centrifuged (3200× g; 10 min, 4 °C). The supernatant was discarded, and the pellets were washed with 1.5 mL of cooled PBS (5400× g; 10 min, 4 °C). The washing step was repeated with 1 mL of PBS and the cells were centrifuged again (10,000× g; 3 min, 4 °C). Afterwards, the pellets were resuspended in 1 mL of Trizol (Invitrogen, Carlsbad, CA, USA) and transferred into pre-cooled RNase-free microfuge tubes. The samples were stored at −80 °C.
(§2) A Quant-iT RiboGreen RNA Assay Kit (Invitrogen) was used to determine the RNA concentration using the Infinite M200 plate reader (Tecan, Männedor, Switzerland). The cDNA was prepared from 0.5 µg of total RNA using a RevertAid First Strand Synthesis cDNA Kit (MBI Fermentas, Vilnius, Lithuania). The amplification of the ubiquitin C gene fragment was used to determine the quality of cDNA.
(§3) The experiment was performed using the ViiA7 Real-Time polymerase chain reaction (PCR) System (Life Technologies, Camarillo, CA, USA) with a 384-well block. Before quantitative real-time PCR, the master mix was prepared by mixing 2 µL of 8 × diluted cDNA, 1.75 µL of RNase free water, 1 µL of 5 × HotFIREPol Probe quantitative PCR Mix Plus (Solis Biodyne, Tartu, Estonia) and 0.25 µL of specific 20 × TaqMan Gene Expression Assay (Life Technologies), giving 5 µL of final reaction volume. Cycling parameters were: initial hold at 50 °C for 2 min and denaturation at 95 °C for 10 min, followed by 45 cycles consisting of denaturation at 95 °C for 15 s and annealing/extension at 60 °C for 1 min. After each extension phase, the fluorescence values were acquired. Duplicate samples were used for measurement and samples with a standard deviation of duplicates > 1.0 cycle threshold (Ct) were re-analyzed. The real time PCR procedure was maintained according to MIQE (Minimum information for publication of quantitative real-time PCR experiments) guidelines. The software REST 2009 (Qiagen, Hilden, Germany) served to compare relative transcript levels of genes in the cell line.

ABCC5 = ABCC5 mRNA expression (real-time PCR); assay type: cell-based, human; conditions: A2780/DOX, 10 µM combined with doxorubicin at IC25, 48 h
Protocol: (§4) The A2780/DOX cell line was seeded into 5 cm Petri dishes with DMEM medium at 1 × 10^5 cell/mL. After 24 h, the dishes were washed with PBS and new DMEM medium supplemented with doxorubicin (at concentration equal to IC25) and samples (10 µM) were added. After 48 h of treatment, the cells were washed with PBS and harvested using the standard trypsin-EDTA procedure. The harvested cells were centrifuged (3200× g; 10 min, 4 °C). The supernatant was discarded, and the pellets were washed with 1.5 mL of cooled PBS (5400× g; 10 min, 4 °C). The washing step was repeated with 1 mL of PBS and the cells were centrifuged again (10,000× g; 3 min, 4 °C). Afterwards, the pellets were resuspended in 1 mL of Trizol (Invitrogen, Carlsbad, CA, USA) and transferred into pre-cooled RNase-free microfuge tubes. The samples were stored at −80 °C.
as §2, §3

ABCD3 = ABCD3 mRNA expression (real-time PCR); assay type: cell-based, human; conditions: A2780/DOX
Protocol: as §4, §2, §3

[1] = ORAC (oxygen radical absorption capacity) assay; conditions: fluorescein/AAPH; read-out: ORAC, concentration necessary to halve the fluorescence response (IC50)
Protocol: Antioxidant capacity of samples was determined by ORAC (oxygen radical absorption capacity) and CAA (cellular antioxidant activity) assays. ORAC assay was realized by the previously described protocol. Briefly, 50 µL of the fluorescein solution (1.6 µg/mL in phosphate-buffered saline (PBS), pH 7.4) was added by a dispenser (MultiFlo Microplate Dispenser, BioTek Instrument, Winooski, VT, USA) into each well of a 96-well plate. Subsequently, 2 µL of tested compound in the concentration range 1.25–20 µM and 23 µL of PBS were added to the wells. The plate was incubated for 15 min at 37 °C and then 25 µL of AAPH (60 mg/mL) was added to each well. AAPH was replaced with PBS for the negative control. Immediately, the fluorescence was recorded by the microplate reader (SpectraMax i3 Multi-Mode Detection Platform, Molecular Devices, San Jose, CA, USA) for 2 h in 5 min steps (excitation/emission 485/535 nm).

ABCG2 (BCRP) = assay: ABCG2 mRNA expression (real-time PCR); assay type: cell-based, human
Protocol: as §1, §2, §3

ABCB10 = ABCB10 mRNA expression (real-time PCR); assay type: cell-based, human; conditions: A2780/DOX
Protocol: as §1, §2, §3

A2780/DOX = assay: Viability of A2780/DOX cells (resazurin); conditions: Homo sapiens, A2780, read-out: IC50 (µM), concentration necessary to halve cell viability
Protocol: To determine the NO production, the medium was mixed with Griess reagent (0.04 g/mL, prepared in deionized water) in a 1:1 ratio. After 15 min, absorbance was recorded at 540 nm. To determine cell viability, the resazurin solution (0.03 mg/mL in PBS) was added to the cells. After 2 h of incubation, fluorescence was recorded (560/590 nm, ex./em.).
A multidrug resistant ovarian sub-line resistant to doxorubicin (A2780/DOX, Sigma-Aldrich) was cultivated in DMEM medium with 10% FBS and 1 × antibiotic antimycotic solution. Every other passage, doxorubicin at the final concentration of 0.1 µM was added to the culture medium to maintain the resistance of the cell line. To perform experiments, the cells were seeded at 1 × 10^5 cell/mL into the wells of a 96-well plate and incubated for 24 h. Afterwards, the cells were washed with PBS and fresh DMEM medium with tested compounds at 10, 20 and 30 µM were added to each well, except for the control wells. Subsequently, the cells were exposed to increasing concentrations of doxorubicin (0.6–20 µM) for 72 h. After incubation, the resazurin assay was performed as described above. The IC50 of doxorubicin was calculated for both the control and the samples and the fold change was counted up. […] The fold change lower than 1 means an antagonistic effect. (1) FOLD CHANGE=IC50 value of DOX cells treated with chemotherapeutic /IC50 value of DOX cells treated with chemotherapeutic and compound

ABCD2 = ABCD2 mRNA expression (real-time PCR); assay type: cell-based, human; conditions: A2780/DOX
Protocol: as §1, §2, §3

[2] = 10 µM combined with doxorubicin at IC25, 48 h
[3] = 10 µM, 48 h, without doxorubicin
[4] = A2780/DOX, 10 µM combined with doxorubicin at IC25, 48 h
[5] = A2780/DOX, 10 µM, 48 h, without doxorubicin

SMILES | ABCF3 Expression Difference (ABCF3; [2]) | ABCF3 Expression Difference (ABCF3; [3]) | ABCC5 Expression Difference (ABCC5) | ABCD3 Expression Difference (ABCD3; [2]) | IC50 [1] [µM] | ABCG2 Expression Difference (ABCG2 (BCRP); [4]) | ABCB10 Expression Difference (ABCB10; [2]) | ABCB10 Expression Difference (ABCB10; [3]) | IC50 (A2780/DOX) [µM] | ABCD2 Expression Difference (ABCD2; [2]) | ABCD2 Treated vs. Untreated (ABCD2; [2]) | ABCD2 Expression Difference (ABCD2; [3]) | ABCD3 Expression Difference (ABCD3; [3]) | ABCG2 Expression Difference (ABCG2 (BCRP); [5]) | ABCD2 Treated vs. Untreated (ABCD2; [3]) | other results
COc1cc([C@H]2Oc3cc(-c4oc5cc(O)cc(O)c5c(=O)c4O)ccc3O[C@@H]2CO)ccc1O [Dehydrosilybin A, 2,3-dehydrosilybin A] | 1.096 | 1.602 | 1.116 | 1.043 | 11.4 ± 1.2 | 1.259 | 1.020 | 1.236 | 74.4 ± 4.8 | 0.698 | DOWN | 1.205 |  |  |  | 
COc1cc(C2Oc3cc(-c4oc5cc(O)cc(O)c5c(=O)c4O)ccc3OC2CO)ccc1O (stereo not shown) [Dehydrosilybin AB, 2,3-dehydrosilybin] | 1.326 | 1.706 | 1.288 | 1.288 | 10.1 | 1.698 | 1.119 | 1.589 | 33.6 ± 0.4 | 0.712 | DOWN | 1.199 | 1.545 | 1.921 |  | 
COc1cc([C@@H]2Oc3cc(-c4oc5cc(O)cc(O)c5c(=O)c4O)ccc3O[C@H]2CO)ccc1O [Dehydrosilybin B, 2,3-dehydrosilybin B] | 1.963 |  | 1.385 | 1.347 | 11.8 ± 0.6 | 1.948 | 1.221 | 1.186 | 27.1 ± 0.4 | 0.733 | DOWN | 0.860 |  |  | DOWN | 
COc1cc([C@H]2Oc3cc([C@H]4Oc5cc(O)cc(O)c5C(=O)[C@@H]4O)ccc3O[C@@H]2CO)ccc1O [Silybin A, silybin A] | 1.570 |  | 1.782 | 1.637 | 6.6 ± 0.3 | 2.415 | 1.060 | 1.136 | 252 ± 7.6 | 0.426 | DOWN | 1.063 |  |  |  | 
COc1cc(C2Oc3cc([C@H]4Oc5cc(O)cc(O)c5C(=O)[C@@H]4O)ccc3OC2CO)ccc1O (stereo partly shown) [Silybin AB, silybin] | 1.554 | 1.440 | 1.787 | 1.560 | 7.1 ± 0.6 | 2.373 | 1.069 | 2.204 | 197 ± 4 | 0.494 | DOWN | 1.566 | 2.181 |  |  | 
COc1cc([C@@H]2Oc3cc([C@H]4Oc5cc(O)cc(O)c5C(=O)[C@@H]4O)ccc3O[C@H]2CO)ccc1O [Silybin B, silybin B] | 1.335 | 0.328 | 1.473 |  | 6.8 ± 0.3 | 1.902 | 0.835 | 0.329 | 194 ± 8.8 | 0.448 | DOWN | 0.322 | 0.337 | 0.335 | DOWN | ABCF3 Treated vs. Untreated (ABCF3; [3]): DOWN; ABCD3 Treated vs. Untreated (ABCD3; [3]): DOWN; downregulation of ABCG2 (BCRP) expression (ABCG2 (BCRP); [3]): 67%; ABCG2 Treated vs. Untreated (ABCG2 (BCRP); [5]): DOWN; ABCB10 Treated vs. Untreated (ABCB10; [2]): DOWN; ABCB10 Treated vs. Untreated (ABCB10; [3]): DOWN
